ChEMBL document CHEMBL5303304, “EUbOPEN Chemogenomics Library - IncuCyte” (2023)

Key:
Type in all cases: toxicity, cell-based
[1] = tested on: HEK-293T; test: Incucyte cell viability with HEK293T; details: human, 0 h, 10 µM, compound concentration 10 uM
[2] = tested on: Fibroblast; test: Incucyte cell viability with human fibroblast; details: 10 µM, compound concentration 10 uM
[3] = tested on: U2OS; test: Incucyte cell viability with U2OS; details: human, 10 µM, compound concentration 10 uM
Note: unitless GR value; below 1 slowed growth and below 0 cell loss.

| Structure (SMILES) | Growth Rate ([2]; 24 h, replicate number 1) | Growth Rate ([3]; 0 h, replicate number 1) | Growth Rate ([3]; 6 h, replicate number 1) | Growth Rate ([3]; 6 h, replicate number 2) | Growth Rate ([3]; 12 h, replicate number 1) | Growth Rate ([3]; 12 h, replicate number 2) | Growth Rate ([3]; 18 h, replicate number 2) | Growth Rate ([3]; 24 h, replicate number 1) | Growth Rate ([3]; 24 h, replicate number 2) | Growth Rate ([2]; 6 h, replicate number 1) | Growth Rate ([2]; 6 h, replicate number 2) | Growth Rate ([2]; 12 h, replicate number 2) | Growth Rate ([2]; 18 h, replicate number 1) | Growth Rate ([2]; 18 h, replicate number 2) | Growth Rate ([2]; 24 h, replicate number 2) | Growth Rate ([3]; 0 h, replicate number 2) | Growth Rate ([2]; 0 h, replicate number 1) | other results |
| --- | --- | --- | --- | --- | --- | --- | --- | --- | --- | --- | --- | --- | --- | --- | --- | --- | --- | --- |
| O=C(Nc1cc2cc[nH]c(=O)c2cc1Cl)[C@H]1CNC[C@@H]1c1cccnc1.O=C(O)C(F)(F)F | – | – | – | – | – | – | – | – | – | – | – | – | – | – | – | – | – | Growth Rate ([1]; replicate number 1): -0.73 |
| CS(C)(=O)=Nc1ccc(-c2ccc(-c3nc4[nH]c(O[C@@H]5CO[C@H]6[C@@H]5OC[C@H]6O)nc4cc3Cl)cc2)cc1 | 0.75 | 0.01 | 0.36 | 0.94 | 0.65 | 0.92 | 0.97 | 0.77 | 0.98 | – | – | – | – | – | – | – | – | Growth Rate ([3]; 18 h, replicate number 1): 0.82 |
| Cc1nc2cccnc2n2c(-c3cc([C@@]4(O)CCCOC4)ccc3Cl)nnc12 | 0.81 | – | – | – | – | 0.83 | 0.96 | – | – | 0.39 | -0.24 | 0.67 | 0.97 | 0.74 | 0.88 | – | – | – |
| COc1cc(-c2cc3ncccc3c(O[C@@H](C)[C@H]3CNC(=O)C3)n2)cc(OC)c1OC | – | – | 0.94 | – | – | – | – | – | – | – | – | 0.62 | – | – | – | – | – | – |
| Cc1cnc(Nc2ccc(C(=O)N3CCN(C)CC3)cc2)nc1N[C@@H]1CCC[C@@H]1C(N)=O | 0.96 | 0.86 | 0.41 | -0.77 | 0.4 | 0.38 | 0.45 | 0.34 | 0.52 | – | 0.31 | -0.08 | – | 0.56 | 0.61 | 0.22 | – | Growth Rate ([2]; 12 h, replicate number 1): 0.62; Growth Rate ([3]; 18 h, replicate number 1): 0.31 |
| Cl.Clc1cc2cc(c1)-c1cnn3ccc(nc13)NCCOCCO2 | -0.13 | -0.1 | – | 0.72 | 0.99 | 0.85 | – | 0.93 | 0.92 | 0.79 | -0.68 | – | 0.22 | – | – | 0.65 | – | Growth Rate ([2]; 12 h, replicate number 1): -1 |
| O=C(O)c1ccc(CN2C[C@@H]3C[C@H]2CN3Cc2ccc(Oc3ccc(-c4ncco4)cc3)cc2)cc1 [ACEBILUSTAT] | – | – | 0.74 | -0.01 | – | 0.49 | 0.79 | – | 0.82 | – | -0.8 | 0.38 | – | 0.62 | 0.87 | 0.32 | -0.98 | – |
| CC(C)(C#N)c1cc(Cn2cncn2)cc(C(C)(C)C#N)c1 [ANASTROZOLE] | 0.63 | -0.51 | – | – | – | – | – | – | – | – | – | – | 0.84 | – | – | – | – | Growth Rate ([2]; 0 h, replicate number 2): -1; Growth Rate ([2]; 12 h, replicate number 1): -1 |
| C[C@H](CCC(=O)O)[C@H]1CC[C@H]2[C@@H]3CC[C@@H]4C[C@H](O)CC[C@]4(C)[C@H]3C[C@H](O)[C@]12C [DEOXYCHOLIC ACID] | – | 0.46 | 0.86 | 0.82 | 0.76 | 0.96 | – | 0.86 | – | 0.32 | 0.72 | 0.78 | 0.97 | 0.69 | 0.9 | 0.84 | 0.67 | Growth Rate ([3]; 18 h, replicate number 1): 0.88 |
| C[C@]12CC[C@H](O)CC1=CC[C@@H]1[C@@H]2CC[C@]2(C)C(n3cnc4ccccc43)=CC[C@@H]12 [GALETERONE] | 0.01 | -0.4 | – | – | – | – | – | – | – | 0.94 | -0.64 | – | 0.61 | – | – | – | -0.16 | Growth Rate ([2]; 0 h, replicate number 2): 0.96 |
| CC#CCC(C)[C@H](O)/C=C/[C@@H]1[C@H]2C/C(=C/CCCC(=O)O)C[C@H]2C[C@H]1O (some centres undefined) [ILOPROST] | – | – | – | – | – | – | – | 0.86 | – | – | – | – | – | – | – | – | – | Growth Rate ([1]; replicate number 1): 0.66; Growth Rate ([1]; replicate number 2): 0.38 |
| COc1nc2ccc([C@@](O)(c3ccc(Cl)cc3)c3cncn3C)cc2c(Cl)c1Cc1ccc(-n2cccn2)cc1 [JNJ-53721590] | – | -1 | -0.25 | – | – | – | – | – | – | – | – | – | – | – | – | – | – | Growth Rate ([1]; replicate number 1): -0.99; Growth Rate ([1]; replicate number 2): -1 |
| c1ccc(Cn2c(N3CCNCC3)nc3ccccc32)cc1 [LERISETRON] | – | – | 0.7 | 0.64 | – | – | 0.94 | – | 0.99 | – | -0.44 | 0.34 | – | 0.56 | 0.68 | – | -0.1 | – |
